Entries after “also recorded” stand apart in the source; their conditions may differ. Like-named read-outs stand apart in the source and are kept apart here.
Experiments:
[1] = Moisture absorption test (hygroscopicity); assay type: physicochemical; settings: 25° C.; for Hygroscopicity (in words): measurement humidity 10 to 95% RH; for Hygroscopicity, change in weight: relative humidity 10→80%
Experimental: A sample was weighed in a glass sample cup, and the weight thereof was measured under the following conditions.
Measuring device: DVS Advantage, manufactured by Surface Measurement System Ltd.
Measurement temperature: 25° C., Minimum exposure time: 15 min, Maximum exposure time: 120 min, Step transition condition: within 0.006 wt. %
The appearance of the sample at the time of completion of the measurement was confirmed.

[2] = Solubility test; assay type: physicochemical; settings: aqueous phosphate solution with 150 mM NaCl, pH around 7.5
Experimental: 150 mg of each of the compounds of Examples 1 and 2 and Comparative Example 1 was dissolved in 5 mL of an aqueous phosphate solution containing sodium chloride (containing 150 mM NaCl and 10 mM […]). After the resulting mixture was stirred for 30 minutes while measuring the pH of the mixture, a 0.5 mL portion of the resulting suspension was taken and filtered through a syringe filter. A 100 μL portion of the obtained filtrate was transferred into a 10-mL volumetric flask and diluted to 10 mL with an aqueous solution of 50% MeCN, whereby a sample solution was prepared. To the suspension, concentrated HCl was added dropwise to adjust the pH thereof to around 7.5.
Measurement was performed using HPLC under the following conditions.
HPLC system: Water's Alliance
Column: XTerra MS C18 3.5 μm, Column Size: 4.6×100 mm
Column Temp: 40° C., Flow Rate: 1.2 mL/min
Solvent A: 0.1% phosphoric acid in water, Solvent B: 0.1% phosphoric acid in MeCN

[3] = Solution stability test; settings: light tester, versus light-shielded control
Experimental: (§1) The above flasks as such and the flasks covered with aluminum foil for light shielding as controls were placed in a light tester at 25° C. After one day, each solution was diluted to 10 mL with 50% MeCN. The concentration of each solution was calculated by performing HPLC under the same conditions as used in the above-described solubility test, and the change in concentration from the control was calculated.

[4] = tested on: TNF-α production in human monocytic cell line U937 stimulated with endotoxin; test: Suppressive effect on production of TNF-α in cells stimulated with endotoxin (in vitro); assay type: cell-based; settings: concentration of test compound: 100 nM, LPS 30 ng/ml, 4.5 hours
Experimental: The rate of suppression of TNF-α production when human monocytic cell line U937 was stimulated with endotoxin was determined for the compound of the present invention. Specifically, to RPMI-1640 medium containing 10% (volume %) of inactivated newborn bovine serum, 12-O-tetradecanoylphorbol-13-acetate was added to give a final concentration of 30 ng/ml. U937 cells were suspended in the medium and plated into a 96-well culture plate (Sumilon) so that the number of cells per well/volume was 2×10^4/0.1 mL, and the culture plate was then incubated for 3 days at 37° C. in a carbon dioxide incubator with 5% CO2 and 100% humidity. After completion of the incubation, the culture supernatant was removed. […] By using a 384-well half area black plate (Greiner) and an HTRF quantitative determination kit manufactured by Cisbio International, the concentration of TNF-α in the culture supernatant was measured as time-resolved fluorescence by Discovery (Packard). From the measured value in the absence of LPS (X), the measured value in the absence of the compound of the present invention (Y), and the measured value in the presence of the compound of the present invention (Z), the rate of suppression of TNF-α production was obtained according to the following calculation formula [I]. […]

[5] = tested on: blood TNF-α level; test: Suppressive effect on elevation of blood TNF-α level (in vivo); parameters: species or system Sprague Dawley rats; settings: test compound 0.3 mg/kg, femoral vein, 0.5 hours before LPS; rat plasma 2 hours after LPS
Experimental: The suppressive effect of the compound of the present invention on the elevation of blood TNF-α level was studied. A test for the elevation of blood TNF-α level was performed in accordance with the method of Parant et al. described in Journal of Leukocyte Biology, Vol. 47, page 164 (1990).
In the test, 3 to 4 male Sprague Dawley rats (8 to 9 weeks of age) were used for each group.
At 4 hours before the administration of LPS, muramyl dipeptide dissolved in physiological saline (1 mg/mL) was administered to each rat through the tail vein at a dose of 1 mL/kg. At 0.5 hours before the administration of LPS, the rats were anaesthetized with pentobarbital (40 mg/kg), and the compound of the present invention dissolved in a 5% dimethyl acetamide/95% polyethylene glycol 400 solution was administered to each rat through the right femoral vein at a dose of 1 mL/kg. To the control group, a 5% dimethyl acetamide/95% polyethylene glycol 400 solution was administered at a dose of 1 mL/kg. […] The plasma TNF-α level was determined using a TNF-α quantitative determination kit (BioSource International, Inc.). From the blood TNF-α level in the control group (X) and the blood TNF-α level in the group administered with the compound of the present invention (Y), the rate of suppression of TNF-α production was calculated according to the following calculation formula [II]. […]

[6] = pH 7
Experimental: as §1

SMILES	Hygroscopicity (in words) [1]	Hygroscopicity, change in weight [1]	Solubility (PBS pH 7.5) [2]	Solution stability (25° C., 1 day) ([3]; McIlvaine buffer pH 8) [%]	Rate of suppression of TNF-α production [4] [%]	Rate of suppression of TNF-α production [5] [%]	Solution stability (25° C., 1 day) ([3]; PBS pH 6) [%]	Solution stability (25° C., 1 day) [6] [%]
CCOC(=O)C1=CC2(CC[C@H]1S(=O)(=O)Nc1ccc(F)cc1Cl)O[C@H](CO)[C@@H](CO)O2 (single isomer, unassigned) [Comparative Example, reference compound]	showed high hygroscopicity at every measurement humidity; also recorded: With hygroscopicity	2.6% (relative	low solubility	99.4	–	–	–	–
CCOC(=O)C1=CC2(CC[C@H]1S(=O)(=O)[N-]c1ccc(F)cc1Cl)O[C@H](CO)[C@@H](CO)O2.[K+] [Example 1, Potassium(2-chloro-4-fluorophenyl){[(2R,3R,8R)-7-(ethoxycarbonyl)-2,3-bis(hydroxymethyl)-1,4-dioxaspiro[4.5]deca-6-en-8-yl]sulfonyl}azanide]	did not show hygroscopicity	<0.1% (relative	13.8 mg/ml	–	89	96	99.9	–
CCOC(=O)C1=CC2(CC[C@H]1S(=O)(=O)[N-]c1ccc(F)cc1Br)O[C@H](CO)[C@@H](CO)O2.[K+] [Example 2, Potassium(2-bromo-4-fluorophenyl){[(2R,3R,8R)-7-(ethoxycarbonyl)-2,3-bis(hydroxymethyl)-1,4-dioxaspiro[4.5]deca-6-en-8-yl]sulfonyl}azanide]	did not show hygroscopicity	<0.1% (relative	9.6 mg/ml	–	–	81	–	99.4

Reference: patent US8933117B2, “Crystals of substituted cycloalkene derivatives” (Daiichi Sankyo Company, Limited, priority 2010, dated 2015)
